Each structure is given as a SMILES string. Active and inactive are the calls of the source. The calls are words filed in the database; no cut-off is given here.

Test [1] concerns the target T1, Trypsin (Homo sapiens, UniProt P07477+P07478+P35030). In words: Inhibition of trypsin (unknown origin) using Bz-Arg-pNA.HCl as substrate at 10 uM after 5 mins by colorimetric analysis. The test is classed as protein assay.
Test [2] deals with T2, Prothrombin (Homo sapiens, UniProt P00734). In words: Inhibition of thrombin (unknown origin) using t-Boc-Val-Pro-Arg-MCA as substrate at 10 uM after 5 mins by fluorimetric analysis.
In test [3] the target is T2, Prothrombin. In words: Non-competitive inhibition of thrombin (unknown origin) using t-Boc-Val-Pro-Arg-MCA as substrate by Lineweaver-Burk plot analysis.
Test [4] deals with T3, Tryptase (Homo sapiens, UniProt Q9BZJ3+Q15661+Q9NRR2). In words: Inhibition of tryptase (unknown origin) using t-Boc-Phe-Ser-Arg-MCA as substrate at 10 uM after 5 mins by fluorimetric analysis. The class given is protein assay.
Test [5] concerns the target T2, Prothrombin. In words: Inhibition of thrombin (unknown origin) using t-Boc-Val-Pro-Arg-MCA as substrate after 5 mins by fluorimetric analysis.
For test [6], the target named is T3, Tryptase. Put plainly: Inhibition of tryptase (unknown origin) using t-Boc-Phe-Ser-Arg-MCA as substrate after 5 mins by fluorimetric analysis. The class given is protein assay.
Test [7] concerns the target T2, Prothrombin. In words: Competitive inhibition of thrombin (unknown origin) using t-Boc-Val-Pro-Arg-MCA as substrate by Lineweaver-Burk plot analysis.
The target in test [8] is T1, Trypsin. Put plainly: Inhibition of trypsin (unknown origin) using Bz-Arg-pNA.HCl as substrate after 5 mins by colorimetric analysis. The test is classed as protein assay.

Consider `CCOP(=O)(CCc1ccc(N)nc1)Oc1ccc2c(c1)C(=O)N(C)C2=O` (stereo not given), for which the inhibition result on Trypsin [1] and on Prothrombin [3] was “inactive” each time. For the same compound, the inhibition was determined as 95% on Prothrombin [2] and 11% against Tryptase [4].

Take `CN1C(=O)c2ccc(NC(CCc3ccc(N)nc3)P(=O)(Oc3ccccc3)Oc3ccccc3)cc2C1=O` (stereo not given): the inhibition entry at Trypsin [1], on Prothrombin [2] and at Tryptase [4] was “inactive” throughout.

Take `CC(C)N1C(=O)c2ccc(NC(CCc3ccc(N)nc3)P(=O)(Oc3ccccc3)Oc3ccccc3)cc2C1=O` (stereo not given): the inhibition result at Trypsin [1], on Prothrombin [2] and on Tryptase [4] was “inactive” each time.

On to `CCOP(=O)(Cc1ccc(N)nc1)Oc1ccc2c(c1)C(=O)N(C)C2=O` (stereo not given), for which the inhibition result at Trypsin [1] is “inactive”. The inhibition at Prothrombin [2] amounted to 59%; at Tryptase [4], 5.3%.

Turning to `CN1C(=O)c2ccc(OC(=O)CCc3ccc(N)nc3)cc2C1=O.Cl`, the inhibition against Trypsin [1] amounted to 97%; at Prothrombin [2] it was 70%; against Tryptase [4], 98%. Moreover, the IC50 at Prothrombin [5] was 5.3 µM; against Tryptase [6], 0.19 µM; at Trypsin [8] it was 1.2 µM. The inhibition result on Prothrombin [7] was “Active”.
